Literature values as cited in patent publication US20130109728A1, “BIOCIDE COMPOSITION” (TITAN CHEMICALS LIMITED, priority 2011, published 2013).

Columns and labels:
[1] = not given; remark: listed apart in the source

## C[N+](C)(C)C.O=c1[nH]sc2ccccc12 [tetramethylammonium BIT, tetramethylammonium 1,2-benzisothiazolin-3-one]
59 wt % tetramethylammonium BIT (40 wt % calculated as BIT), after storage for 24 hours and seeding with solid tetramethylammonium BIT, reported in WO 02 14 293
  minimum freezing point of water solution: 3 °C

## Cn1sccc1=O [MIT, 2-methylisothiazolin-3-one]
Solutions of MIT in water
  freezing point of solutions in water: about 0 °C

## O=c1[nH]sc2ccccc12 [BIT, 1,2-benzisothiazolin-3-one]
[1]
  water solubility: not very water soluble
